Laboratory results taken from patent publication US8501936B2 (priority 2009, dated 2013).

Legend:
human FAK = human FAK (Homo sapiens (Human), UniProt Q05397); details: read-out: FAK IC50
human JAK2 = human JAK2 (Homo sapiens (Human), UniProt O60674); details: read-out: JAK2 IC50
Sequence of human JAK2 (O60674 815-1132): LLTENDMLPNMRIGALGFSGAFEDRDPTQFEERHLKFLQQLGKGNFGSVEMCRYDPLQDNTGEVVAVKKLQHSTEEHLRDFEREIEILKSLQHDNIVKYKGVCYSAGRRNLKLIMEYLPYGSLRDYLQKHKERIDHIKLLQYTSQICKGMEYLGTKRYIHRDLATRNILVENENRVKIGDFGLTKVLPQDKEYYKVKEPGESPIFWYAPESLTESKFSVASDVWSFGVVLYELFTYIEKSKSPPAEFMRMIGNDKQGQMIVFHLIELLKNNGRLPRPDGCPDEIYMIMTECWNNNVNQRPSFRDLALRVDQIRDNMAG

Sequence of human FAK (Q05397 whole entry): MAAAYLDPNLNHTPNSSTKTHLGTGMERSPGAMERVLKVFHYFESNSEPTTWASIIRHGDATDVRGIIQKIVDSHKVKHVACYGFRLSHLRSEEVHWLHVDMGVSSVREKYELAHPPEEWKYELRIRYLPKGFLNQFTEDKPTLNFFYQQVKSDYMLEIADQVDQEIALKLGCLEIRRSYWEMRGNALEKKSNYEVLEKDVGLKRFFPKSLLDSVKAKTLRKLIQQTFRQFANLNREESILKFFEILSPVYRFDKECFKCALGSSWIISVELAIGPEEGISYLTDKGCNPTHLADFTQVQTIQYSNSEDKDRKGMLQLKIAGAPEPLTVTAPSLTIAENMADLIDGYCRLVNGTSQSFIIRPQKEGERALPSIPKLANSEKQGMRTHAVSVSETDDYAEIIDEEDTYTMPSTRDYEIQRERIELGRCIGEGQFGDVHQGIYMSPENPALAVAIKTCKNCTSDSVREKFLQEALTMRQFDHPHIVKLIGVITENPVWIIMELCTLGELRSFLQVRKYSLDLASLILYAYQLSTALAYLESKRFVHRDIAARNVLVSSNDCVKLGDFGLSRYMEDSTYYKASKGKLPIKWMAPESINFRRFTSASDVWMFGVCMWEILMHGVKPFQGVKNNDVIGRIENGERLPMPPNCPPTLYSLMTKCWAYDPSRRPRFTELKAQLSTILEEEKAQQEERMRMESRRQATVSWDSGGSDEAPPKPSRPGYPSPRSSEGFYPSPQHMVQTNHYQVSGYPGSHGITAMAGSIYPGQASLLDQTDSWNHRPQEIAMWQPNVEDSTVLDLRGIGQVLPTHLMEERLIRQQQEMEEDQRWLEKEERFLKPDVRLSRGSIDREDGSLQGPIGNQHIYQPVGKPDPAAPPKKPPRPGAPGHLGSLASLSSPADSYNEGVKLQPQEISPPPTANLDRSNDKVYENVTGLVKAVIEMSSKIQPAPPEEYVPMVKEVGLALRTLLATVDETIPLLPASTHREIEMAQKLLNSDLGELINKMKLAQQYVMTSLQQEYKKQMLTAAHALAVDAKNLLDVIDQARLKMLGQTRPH

SMILES	IC50 (human FAK) [nM]	IC50 (human JAK2) [nM]
CCN1CCN(c2cccc(Nc3nc4c(-c5ccc(P(C)(C)=O)cc5)cccn4n3)c2)C(=O)C1 [Example 208, 1-(3-{8-[4-(Dimethyl-phosphinoyl)-phenyl]-[1,2,4]triazolo[1,5-a]pyridin-2-ylamino}-phenyl)-4-ethyl-piperazin-2-one]	10000	13.2
CS(=O)(=O)c1ccc(-c2cccn3nc(Nc4cccc(N5CCN(CC(N)=O)CC5)c4)nc23)cc1 [Example 183, 2-(4-{3-[8-(4-Methanesulfonyl-phenyl)-[1,2,4]triazolo[1,5-a]pyridin-2-ylamino]-phenyl}-piperazin-1-yl)-acetamide]	6500	0.65
CCN1CCP(=O)(c2ccc(Nc3nc4c(-c5ccc(S(C)(=O)=O)cc5)cccn4n3)cc2)CC1 [Example 411, N-[4-(1-ethyl-4-oxido-1,4-azaphosphinan-4-yl)phenyl]-8-[4-(methylsulfonyl)phenyl][1,2,4]triazolo[1,5-a]pyridin-2-amine]	1860	1.62
c1ccc(-c2cccn3nc(Nc4ccc5c(c4)CCNCC5)nc23)c(OCC2CC2)c1 [Example 301, [8-(2-Cyclopropylmethoxy-phenyl]-[1,2,4]triazolo[1,5a]pyridine-2-yl]-(2,3,4,5-tetrahydro-benzo[d]azepin-7-yl)-amine]	2790	112
CS(=O)(=O)c1ccc(-c2cccn3nc(Nc4cccc(C5CCN(CC(N)=O)CC5)c4)nc23)cc1 [Example 184, 2-(4-{3-[8-(4-Methanesulfonyl-phenyl)-[1,2,4]triazolo[1,5-a]pyridin-2-ylamino]-phenyl}-piperidin-1-yl)-acetamide]	384	0.41
CN1CCN(c2ccc(Nc3nc4c(-c5ccccc5S(C)(=O)=O)cccn4n3)cc2)CC1 [Example 66, [8-(2-Methanesulfonyl-phenyl)-[1,2,4]triazolo[1,5-a]pyridin-2-yl]-[4-(4-methyl-piperazin-1-yl)-phenyl]-amine]	10000	1330
COc1ccccc1CNc1cccn2nc(Nc3ccnc(C)c3)nc12 [Example 404, N(8)-(2-Methoxy-benzyl)-N(2)-(2-methyl-pyridin-4-yl)-[1,2,4]triazolo[1,5-a]pyridine-2,8-diamine]	2580	24.7
COc1ccc(CNc2cccn3nc(Nc4ccc(N5CCN(C)CC5)cc4)nc23)cc1 [Example 391, N(8)-(4-Methoxy-benzyl)-N(2)-[4-(4-methyl-piperazin-1-yl)-phenyl]-[1,2,4]triazolo[1,5-a]pyridine-2,8-diamine]	10000	3020
Fc1ccc(-n2cc(-c3cccn4nc(Nc5ccc(C6CCNCC6)cc5)nc34)cn2)cc1 [Example 282]	999	2.12
CN1CCC(c2ccc(Nc3nc4c(Nc5ccccc5S(C)(=O)=O)cccn4n3)cc2)CC1 [Example 125, N(8)-(2-Methanesulfonyl-phenyl)-N(2)-[4-(1-methyl-piperidin-4-yl)-phenyl]-[1,2,4]triazolo[1,5-a]pyridine-2,8-diamine]	2050	6.6
COc1ccc(C(F)(F)F)cc1-c1cccn2nc(Nc3ccc(OCCN4CCCC4)cc3)nc12 [Example 259, [8-(2-Methoxy-5-trifluoromethyl-phenyl)-[1,2,4]triazolo[1,5-a]pyridin-2-yl]-[4-(2-pyrrolidin-1-yl-ethoxy)-phenyl]-amine]	3390	73.7
CS(=O)(=O)c1cccc(-c2cccc3nc(Nc4ccc(N5CCOCC5)cc4)nn23)c1 [Example 78, [5-(3-Methanesulfonyl-phenyl)-[1,2,4]triazolo[1,5-a]pyridin-2-yl]-(4-morpholin-4-yl-phenyl)-amine]	1530	3.2
CCCOc1ccc(Cl)cc1-c1cccn2nc(Nc3ccc4c(c3)CCN(CC(=O)N(C)C)CC4)nc12 [Example 308, 2-{7-[8-(5-Chloro-2-propoxy-phenyl]-[1,2,4]triazolo[1,5a]pyridine-2-ylamino]1,2,4,5-tetrahydro-benzo[d]azepin-3-yl)-N,N-dimethyl-acetamide]	946	365
FC(F)(F)c1ccc(-c2cccn3nc(Nc4cnn(CCN5CCCC5)c4)nc23)cc1 [Example 216, [1-(2-Pyrrolidin-1-yl-ethyl)-1H-pyrazol-4-yl]-[8-(4-trifluoromethyl-phenyl)-[1,2,4]triazolo[1,5-a]pyridin-2-yl]-amine]	10000	9.1
COc1ccccc1CNc1cccn2nc(Nc3cccnc3)nc12 [Example 400, N(8)-(2-Methoxy-benzyl)-N(2)-pyridin-3-yl-[1,2,4]triazolo[1,5-a]pyridine-2,8-diamine]	3120	32.3
c1cncc(-c2cccn3nc(Nc4ccc(N5CCOCC5)cc4)nc23)c1 [Example 6, (4-Morpholin-4-yl-phenyl)-(8-pyridin-3-yl-[1,2,4]triazolo[1,5-a]pyridin-2-yl)-amine]	3000	25.9

SMILES	IC50 (human FAK) [nM]	IC50 (human JAK2) [nM]
CN1CCN(c2ccc(Nc3nc4c(Nc5ccccc5S(C)(=O)=O)cccn4n3)cc2)CC1 [Example 72, N(8)-(2-Methanesulfonyl-phenyl)-N(2)-[4-(4-methyl-piperazin-1-yl)-phenyl]-[1,2,4]triazolo[1,5-a]pyridine-2,8-diamine]	380	8.3
COc1cnc(-c2cccn3nc(Nc4ccc(C5CCNCC5)cc4)nc23)cn1 [Example 285]	2470	73.8
CS(=O)(=O)c1ccc(-c2cccc3nc(Nc4ccc(N5CCOCC5)cc4)nn23)cc1 [Example 12, [5-(4-Methanesulfonyl-phenyl)-[1,2,4]triazolo[1,5-a]pyridin-2-yl]-(4-morpholin-4-yl-phenyl)-amine]	434	0.7
CS(=O)(=O)CCN1CCc2ccc(Nc3nc4c(-c5cc(C(F)(F)F)ccc5Cl)cccn4n3)cc2CC1 [Example 268, [8-(2-Chloro-5-trifluoromethyl-phenyl)-[1,2,4]triazolo[1,5-a]pyridin-2-yl]-[3-(2-methanesulfonyl-ethyl)-2,3,4,5-tetrahydro-1H-benzo[d]azopin-7-yl]-amine]	999	16.8
CN1CCC(c2ccc(Nc3nc4c(NCc5cccnc5N(C)S(C)(=O)=O)cccn4n3)cc2)CC1 [Example 123, N-Methyl-N-[3-({2-[4-(1-methyl-piperidin-4-yl)-phenylamino]-[1,2,4]triazolo[1,5-a]pyridin-8-ylamino}-methyl)-pyridin-2-yl]-methanesulfonamide]	77.3	40.3
COc1ccc(C(F)(F)F)cc1-c1cccc2nc(Nc3ccc4c(c3)CCN(CCSC)CC4)nn12 [Example 235, [5-(2-Methoxy-5-trifluoromethyl-phenyl)-[1,2,4]triazolo[1,5-a]pyridin-2-yl]-(3-(2-methylsulfanyl-ethyl)-2,3,4,5-tetrahydro-1H-3-benzazepin-7-yl]-amine]	135	26.7
CN1Cc2ccc(Nc3nc4c(NCc5ccccc5N(C)S(C)(=O)=O)cccn4n3)cc2C1 [Example 167, N-Methyl-N-(2-{[2-(2-methyl-2,3-dihydro-1H-isoindol-5-ylamino)-[1,2,4]triazolo[1,5-a]pyridin-8-ylamino]-methyl}-phenyl)-methanesulfonamide]	17.8	9.19
CN1CCN(Cc2cccc(Nc3nc4c(-c5ccc(S(C)(=O)=O)cc5)cccn4n3)c2)CC1 [Example 116, [8-(4-Methanesulfonyl-phenyl)-[1,2,4]triazolo[1,5-a]pyridin-2-yl]-[3-(4-methyl-piperazin-1-ylmethyl)-phenyl]-amine]	3000	3.07
CC(C)(C)OC(=O)N1CCN(c2ccc(Nc3nc4cccc(-c5ccc(S(C)(=O)=O)cc5)n4n3)cc2)CC1 [Example 75, 4-{4-[5-(4-Methanesulfonyl-phenyl)-[1,2,4]triazolo[1,5-a]pyridin-2-ylamino]-phenyl}-piperazine-1-carboxylic acid tert-butyl ester]	359	1.3
CN1CCN(c2cccc(Nc3nc4c(C#Cc5ccccc5N(C)S(C)(=O)=O)cccn4n3)c2)CC1 [Example 192, N-Methyl-N-(2-{2-[3-(4-methyl-piperazin-1-yl)-phenylamino]-[1,2,4]triazolo[1,5-a]pyridin-8-ylethynyl}-phenyl)-methanesulfonamide]	2420	23.9
CCn1cc(Nc2nc3c(Oc4ccc(S(C)(=O)=O)cc4)cccn3n2)cn1 [Example 211, (1-Ethyl-1H-pyrazol-4-yl)-[8-(4-methanesulfonyl-phenoxy)-[1,2,4]triazolo[1,5-a]pyridin-2-yl]-amine]	10000	1160
CS(=O)(=O)c1ccc(-c2cccn3nc(NCCc4cccnc4)nc23)cc1 [Example 407, [8-(4-Methanesulfonyl-phenyl)-[1,2,4]triazolo[1,5-a]pyridin-2-yl]-(2-pyridin-3-yl-ethyl)-amine]	10000	1980
COc1ccccc1-c1cccn2nc(Nc3ccc4c(c3)CCN(CC(=O)N(C)C)CC4)nc12 [Example 313, 2-{7-[8-(2-Methoxy-phenyl)-[1,2,4]triazolo[1,5-a]pyridine-2-ylamino]-1,2,4,5-tetrahydro-3-benzazepin-3-yl}-N,N-dimethyl-acetamide]	10000	39.2
COc1ncccc1-c1cccn2nc(Nc3ccc4ncccc4c3)nc12 [Example 274, [8-(2-Methoxy-pyridin-3-yl)-[1,2,4]triazolo[1,5-a]pyridine-2-yl]-quinolin-6-yl-amine]	10000	192
Cc1ccc(-c2cccn3nc(Nc4ccc5c(c4)CCNCC5)nc23)c(OCC(C)C)c1 [Example 296, [8-(2-Isobutoxy-4-methyl-phenyl]-[1,2,4]triazolo[1,5a]pyridine-2-yl]-(2,3,4,5-tetrahydro-benzo[d]azepin-7-yl)-amine]	3000	2800
CS(=O)(=O)c1ccc(Nc2nc3c(-c4ccc(S(C)(=O)=O)cc4)cccn3n2)cc1 [Example 112, (4-Methanesulfonyl-phenyl)-[8-(4-methanesulfonyl-phenyl)-[1,2,4]triazolo[1,5-a]pyridin-2-yl]-amine]	531	1.3
